The test system of assay [1] is PSMA-positive/ANXA1-positive PC3 cells. Nature of the assay: Anticancer treatment in femur PC3 tumor model at same vcMMAE dose. Type of assay: in vivo, mice. Particulars: four courses. As to the method: 2 × 10^6 PSMA-positive/ANXA1-positive PC3 cells were inoculated into the right femur. […] As control, 1.25 mg/kg (31.25 ng vcMMAE/25 g mouse) of vcMMAE alone (molecular weight: 1316.6) was administered. The tumor size was monitored by measuring the average radiance (photon/sec/cm^2/sr) of the luciferase-expressing tumor after injection of luciferin (150 mg/mouse using an IVIS system. After four courses of administration, the average radiance of the luciferase-expressing tumor and the body weight were evaluated (FIG. 48).

In assay [2] the test system is PSMA-negative/ANXA1-negative human prostate cancer cells PC3 and PSMA-positive/ANXA1-positive PC3 cells. Nature of the assay: Anticancer treatment in back subcutaneous PC3 tumor model. In kind it is in vivo, nude mice. As to the method:
1 × 10^6 PSMA-negative/ANXA1-negative human prostate cancer cells PC3 were inoculated into the left back of nude mice, and 1 × 10^6 PSMA-positive/ANXA1-positive PC3 cells were inoculated into the right back of the nude mice. […] As control, 0.919 mg/kg (22.975 ng vcMMAE/25 g mouse) of vcMMAE alone (molecular weight: 1316.6) was administered. The tumor size was monitored by measuring the average radiance (photon/sec/cm^2/sr) of the luciferase-expressing tumor after injection of luciferin (150 mg/mouse) using an IVIS system. After three courses of administration, the tumor size, body weight, pathological test, blood biochemical test, and blood cell count test values were evaluated (FIG. 41).

For assay [3] the test system is unchanged. The experiment in a line: Anticancer treatment in femur subcutaneous PC3 tumor model. Type of assay: in vivo, nude mice. To be noted: vcMMAE-dhp7 1.25 mg/kg or vcMMAE 0.919 mg/kg intraperitoneal every four days, three courses; femur tumors. As for the experimental part: As control, 0.919 mg/kg (22.975 ng vcMMAE/25 g mouse) of vcMMAE alone (molecular weight: 1316.6) was administered. The tumor size was monitored by measuring the average radiance (photon/sec/cm^2/sr) of the luciferase-expressing tumor after injection of luciferin (150 mg/mouse using an IVIS system. After three courses of administration, the average radiance of the luciferase-expressing tumor and the body weight were evaluated (FIG. 46).

The subject of assay [4] is PC3-Luc2-PSMA+/ANXA1-positive cells. Nature of the assay: Cytotoxicity (Cell Counting Kit-8) to ANXA1-positive PC3 cells. Type of assay: cell-based, human. As for the experimental part:
(§1) The cell viability was analyzed by Cell Counting Kit-8 (Dojindo), and the IC50 value was calculated (FIG. 40).
(Formazan colour is commonly taken as a measure of viable cells.)

The test system of assay [5] is PC3-Luc2-PSMA-/ANXA1-negative cells. The experiment in a line: Cytotoxicity (Cell Counting Kit-8) to ANXA1-negative PC3 cells. Type of assay: cell-based, human. Particulars: 37°C for 24 hours; cell viability by Cell Counting Kit-8. As to the method:
as §1

Experimental findings from EP4772523A1, “D-PEPTIDE AND USE THEREOF” (HIROSAKI UNIVERSITY, priority 2023, dated 2025) are described below.

c(vcMMAE)-hpnevrs [vcMMAE-dhp7]: the “resected tumor weights compared with vcMMAE treatment group” value in assay [1] is “markedly smaller”. The “average radiance of luciferase-expressing tumor” value in assay [1] (vcMMAE-dhp7 2.14 mg/kg or vcMMAE 1.25 mg/kg intraperitoneal every four days) was “markedly reduced”; in assay [2] (1.25 mg/kg intraperitoneal every four days, three courses, back subcutaneous tumors), “almost completely reduced”; in assay [3] it was “reduced similarly over the three courses of treatment”. Besides, in assay [2] (in contrast to vcMMAE alone administration group), the “appearance and HE staining of resected tumors” value is “marked necrotic change and fewer residual tumors were observed”. For the same substance, in assay [2] (versus vcMMAE treatment group), the “CD31-positive vessel density in the residual tumors” value was “statistically significantly reduced”. For the same substance, the IC50 value in assay [4] (37°C for 24 hours, cell viability by Cell Counting Kit-8) is given as 122.7 ng; in assay [5], 204.5 ng. Also, the “in-vitro sensitivity of Anxa1-positive cells relative to ANXA1-negative cells” value in assay [4] (PC3 cells) was “twice”.
